Results as given in US7288557B2, “Triazole derivatives” (Hoffmann-La Roche Inc., priority 2004, dated 2007).

Test system: HEK293 cells
Assay: Viability assay of HEK293 cells (CellTiter-Glo luminescent cell viability assay)
Type: cell-based, human
Conditions: 7 days (168 h) incubation, 3 μM to 0.00015 μM
Protocol: Viability Assay of HEK293 Cells
A viability assay was performed using the CellTiter-Glo® Luminescent Cell Viability Assay (see Promega Corporation's Technical No. 288, pp. 1-11 [revised February 2004] which is hereby incorporated by reference in its entirety). This assay is a homogeneous method of determining the number of viable cells in culture based on quantitation of the ATP present, an indicator of metabolically active cells. The assay is designed for use with multiwell formats, making it ideal for automated high-throughput screening (HTS), cell proliferation and cytotoxicity assays. The homogeneous assay procedure involves adding a single reagent (containing luciferase, luciferan substrate, and buffer) directly to cells cultured in serum-supplemented medium. Cell washing, removal of medium and multiple pipetting steps are not required. The system detects as few as 15 cells/well in a 384-well format in 10 minutes after adding reagent and mixing.
The homogeneous “add-mix-measure” format results in cell lysis and generation of a luminescent signal proportional to the amount of ATP present. The amount of ATP is directly proportional to the number of cells present in culture. The above-referenced assay generates a “glow-type” luminescent signal, produced by the luciferase reaction, which has a half-life generally greater than five hours, depending on cell type and medium used. The extended half-life eliminates the need to use reagent injectors and provides flexibility for continuous or batch mode processing of multiple plates. […]
HEK293 cells (human embryonic kidney cell line transformed by Adenovirus 5 fragments, ATCC-No. CRL 1573) were cultivated in Dulbecco's Modified Eagle Medium (D-MEM) (1×) liquid (high glucose) (which includes L-Alanyl-L-Glutamine [a stabilized a form of L-Glutamine], 4500 mg/L glucose, and 110 mg/L sodium pyruvate) from Invitrogen Corporation (Invitrogen Catalog Number 31966-021 [now 10569-010] which is hereby incorporated by reference in its entirety), 5% Fetal Calf Serum (FCS, Sigma Cat-No. F4135 [FBS] which is hereby incorporated by reference in its entirety), and 100 Units/ml penicillin/100 μg/ml streptomycin (=Pen/Strep from Invitrogen Cat. No. 15140, which is hereby incorporated by reference in its entirety). […] After 7 days the above viability assay was performed in accordance with the following steps: • Step 1: The cell-plate was equilibrated to room temperature for approximately 30 minutes and than the assay reagent (containing luciferase, luciferan substrate, and buffer) was added. • Step 2: The contents were carefully mixed for 15 minutes to induce cell lysis. • Step 3: After 45 minutes the luminescent signal was measured in Victor 2, (scanning multiwell spectrophotometer, Wallac). […]

Row | Compound | IC50 [nM] | IC50 (Homo sapiens) [nM]
1 | OC(CCCn1ccnn1)c1ccc(OCc2coc(/C=C/c3ccc(OC(F)(F)F)cc3)n2)cc1 (racemic) [Example 2, (rac)-4-[1,2,3]Triazol-1-yl-1-(4-{2-[(E)-2-(4-trifluoro-methoxyphenyl)-vinyl]-oxazol-4-ylmethoxy}-phenyl)-butan-1-ol] | 21.1 | –
2 | O=C(CCCn1ccnn1)c1ccc(OCc2coc(/C=C/c3ccc(OC(F)(F)F)cc3)n2)cc1 [Example 1, 4-[1,2,3]Triazol-1-yl-1-(4-{2-[(E)-2-(4-trifluoromethoxy-phenyl)-vinyl]-oxazol-4-ylmethoxy}-phenyl)-butan-1-one] | – | 17.9
3 | O=C(CCCn1ccnn1)c1ccc(OCc2coc(/C=C/c3ccc(SC(F)(F)F)cc3)n2)cc1 [Example 3, 4-[1,2,3]Triazol-1-yl-1-(4-{2-[(E)-2-(4-trifluoromethylsulfanyl-phenyl)-vinyl]-oxazol-4-ylmethoxy}-phenyl)-butan-1-one] | – | 29.9
4 | O=C(CCCn1ccnn1)c1ccc(OCc2coc(C=Cc3ccc(C(F)(F)F)cc3)n2)cc1 [Reference compound, 4-[1,2,3]Triazol-1-yl-1-(4-{2-[2-(4-trifluoromethyl-phenyl)-vinyl]-oxazol-4-ylmethoxy}-phenyl)-butan-1-one, reference compound] | – | 164
